# Assay results published in patent US9067911B2, “Piperidine derivatives” (Hoffmann-La Roche Inc., priority 2009, dated 2015).
# Structures can show the parent of a compound that is named as a salt.
# Target: T1, mGlyT-1b (Mus musculus, UniProt P28571)
# T1 construct: host or cells: Flp-in-CHO
# T1 sequence (P28571 1-651 isoform P28571-2): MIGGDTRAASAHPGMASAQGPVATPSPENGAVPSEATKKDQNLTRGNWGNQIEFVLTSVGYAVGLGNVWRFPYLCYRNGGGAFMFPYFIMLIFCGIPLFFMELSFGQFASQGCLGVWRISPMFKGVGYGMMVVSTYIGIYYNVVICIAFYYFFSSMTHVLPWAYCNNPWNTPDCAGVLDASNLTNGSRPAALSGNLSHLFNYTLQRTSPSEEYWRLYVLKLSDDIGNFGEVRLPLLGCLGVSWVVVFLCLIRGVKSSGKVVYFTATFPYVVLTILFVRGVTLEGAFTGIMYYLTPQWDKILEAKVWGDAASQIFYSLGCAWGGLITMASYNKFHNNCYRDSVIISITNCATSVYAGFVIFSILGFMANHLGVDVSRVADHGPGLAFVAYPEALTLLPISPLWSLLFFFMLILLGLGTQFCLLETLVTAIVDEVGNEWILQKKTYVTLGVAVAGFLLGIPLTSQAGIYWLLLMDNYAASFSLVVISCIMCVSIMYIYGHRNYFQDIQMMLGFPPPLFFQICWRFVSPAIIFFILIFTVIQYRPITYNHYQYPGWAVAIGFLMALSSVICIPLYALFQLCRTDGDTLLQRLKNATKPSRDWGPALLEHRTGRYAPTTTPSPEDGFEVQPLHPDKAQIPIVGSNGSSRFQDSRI
# Assay: Glycine uptake inhibition assay (mGlyT-1b)
# Assay type: cell-based
# Conditions: [3H]-glycine uptake, Flp-in-CHO cells stably transfected with mGlyT1b cDNA, 20 min preincubation at 22° C.
# Experimental: Nutrient mixture F-12 (Gibco Life-technologies), fetal bovine serum (FBS) 5%, (Gibco life technologies), Penicillin/Streptomycin 1% (Gibco life technologies), Hygromycin 0.6 mg/ml (Gibco life technologies), Glutamine 1 mM Gibco life technologies)
# 150 mM NaCl, 10 mM Hepes-Tris, pH 7.4, 1 mM CaCl2, 2.5 mM KCl, 2.5 mM MgSO4, 10 mM (+) D-glucose.
# Flp-in™-CHO (Invitrogen Cat n° R758-07) cells stably transfected with mGlyT1b cDNA.
# Glycine Uptake Inhibition Assay (mGlyT-1b)
# On day 1 mammalian cells, (Flp-in™-CHO), transfected with mGlyT-1b cDNA, were plated at the density of 40,000 cells/well in complete F-12 medium, without hygromycin in 96-well culture plates. On day 2, the medium was aspirated and the cells were washed twice with uptake buffer (UB). The cells were then incubated for 20 min at 22° C. with either (i) no potential competitor, (ii) 10 mM non-radioactive glycine, (iii) a concentration of a potential inhibitor. A range of concentrations of the potential inhibitor was used to generate data for calculating the concentration of inhibitor resulting in 50% of the effect (e.g. IC50, the concentration of the competitor inhibiting glycine uptake of 50%). A solution was then immediately added containing [^3H]-glycine 60 nM (11-16 Ci/mmol) and 25 μM non-radioactive glycine. The plates were incubated with gentle shaking and the reaction was stopped by aspiration of the mixture and washing (three times) with ice-cold UB. The cells were lysed with scintillation liquid, shaken 3 hours and the radioactivity in the cells was counted using a scintillation counter.
row,IC50 [nM],SMILES
1,36.9,"CCc1cc(C(F)(F)F)ccc1C(=O)NC1(c2ccncc2)CCCN(C)C1 (racemic) [Example 72, rac-2-Ethyl-N-(1-methyl-1,4,5,6-tetrahydro-2H-[3,4′]bipyridinyl-3-yl)-4-trifluoromethyl-benzamide hydrochloride]"
2,54.4,"COc1cc(C(F)(F)F)cc(SC)c1C(=O)NC1(c2cccnc2)CCCN(C)C1 (racemic) [Example 73, rac-2-Methoxy-6-methylsulfanyl-N-(1-methyl-1,4,5,6-tetrahydro-2H-[3,3′]bipyridinyl-3-yl)-4-trifluoromethyl-benzamide]"
3,123,"CCc1cc(C(F)(F)F)ccc1C(=O)NC1(c2cccnc2)CCCN(C)C1 (racemic) [Example 74, rac-2-Ethyl-N-(1-methyl-1,4,5,6-tetrahydro-2H-[3,3′]bipyridinyl-3-yl)-4-trifluoromethyl-benzamide hydrochloride]"
4,92.9,"CO[C@@H]1CN(C)C[C@](NC(=O)c2ccc(C(F)(F)F)cc2C2CC2)(c2ccccc2)C1 (racemic) [Example 76, 2-Cyclopropyl-N-((3RS,5SR)-5-methoxy-1-methyl-3-phenyl-piperidin-3-yl)-4-trifluoromethyl-benzamide]"
5,88.1,"CCc1cc(C(F)(F)F)ccc1C(=O)N[C@@]1(c2ccccc2)C[C@H](OC)CN(C)C1 (racemic) [Example 77, 2-Ethyl-N-((3RS,5SR)-5-methoxy-1-methyl-3-phenyl-piperidin-3-yl)-4-trifluoromethyl-benzamide]"
6,176,"COc1cc(C(F)(F)F)cc(OC)c1C(=O)NC1(c2ccccc2)CCCN(C)C1 (racemic) [Example 80, rac-2,6-Dimethoxy-N-(1-methyl-3-phenyl-piperidin-3-yl)-4-trifluoromethyl-benzamide]"
7,25.3,"C[C@@H]1CN(C)C[C@](NC(=O)c2ccc(C(F)(F)F)cc2C2CC2)(c2ccccc2)C1 (racemic) [Example 82, 2-Cyclopropyl-N-((3RS,5SR)-1,5-dimethyl-3-phenyl-piperidin-3-yl)-4-trifluoromethyl-benzamide hydrochloride]"
8,30,"CN1CC(C)(C)CC(NC(=O)c2ccc(C(F)(F)F)cc2C2CC2)(c2ccccc2)C1 (racemic) [Example 83, rac-2-Cyclopropyl-4-trifluoromethyl-N-(1,5,5-trimethyl-3-phenyl-piperidin-3-yl)-benzamide]"
9,17.3,"COc1cc(C(F)(F)F)cc(SC)c1C(=O)NC1(c2ccccc2)CCC(C)(C)N(C)C1 (racemic) [Example 84, rac-2-Methoxy-6-methylsulfanyl-4-trifluoromethyl-N-(1,6,6-trimethyl-3-phenyl-piperidin-3-yl)-benzamide hydrochloride]"
10,71.5,"COCO[C@@H]1CN(C)C[C@](NC(=O)c2c(OC)cc(C(F)(F)F)cc2SC)(c2ccccc2)C1 (racemic) [Example 86, 2-Methoxy-N-((3RS,5SR)-5-methoxymethoxy-1-methyl-3-phenyl-piperidin-3-yl)-6-methylsulfanyl-4-trifluoromethyl-benzamide]"
11,39.6,"COc1cc(C(F)(F)F)cc(SC)c1C(=O)NC1(c2cccc(Br)c2)CCCN(C)C1 (racemic) [Example 87, rac-N-[3-(3-Bromo-phenyl)-1-methyl-piperidin-3-yl]-2-methoxy-6-methylsulfanyl-4-trifluoromethyl-benzamide hydrochloride]"
12,146,"COc1cc(C(F)(F)F)cc(SC)c1C(=O)NC1(c2ccc(F)cc2Cl)CCCN(C)C1 (racemic) [Example 88, rac-N-[3-(2-Chloro-4-fluoro-phenyl)-1-methyl-piperidin-3-yl]-2-methoxy-6-methylsulfanyl-4-trifluoromethyl-benzamide]"
13,107,"COc1cc(C(F)(F)F)cc(SC)c1C(=O)NC1(c2cccc(C(F)(F)F)c2)CCCN(C)C1 (racemic) [Example 89, rac-2-Methoxy-6-methylsulfanyl-N-[1-methyl-3-(3-trifluoromethyl-phenyl)-piperidin-3-yl]-4-trifluoromethyl-benzamide]"
14,113,"COc1cccc(C2(NC(=O)c3c(OC)cc(C(F)(F)F)cc3SC)CCCN(C)C2)c1 (racemic) [Example 91, rac-2-Methoxy-N-[3-(3-methoxy-phenyl)-1-methyl-piperidin-3-yl]-6-methylsulfanyl-4-trifluoromethyl-benzamide]"
15,47.9,"COc1cc(C(F)(F)F)cc(SC)c1C(=O)NC1(c2cccc(F)c2)CCCN(C)C1 (racemic) [Example 93, rac-N-[3-(3-Fluoro-phenyl)-1-methyl-piperidin-3-yl]-2-methoxy-6-methylsulfanyl-4-trifluoromethyl-benzamide formic acid]"
16,59.6,"COc1cc(C(F)(F)F)cc(SC)c1C(=O)NC1(c2ccc(F)c(Cl)c2)CCCN(C)C1 (racemic) [Example 94, rac-N-[3-(3-Chloro-4-fluoro-phenyl)-1-methyl-piperidin-3-yl]-2-methoxy-6-methylsulfanyl-4-trifluoromethyl-benzamide]"
17,51.5,"COc1cc(C(F)(F)F)cc(SC)c1C(=O)NC1(c2ccc(F)c(F)c2)CCCN(C)C1 (racemic) [Example 95, rac-N-[3-(3,4-Difluoro-phenyl)-1-methyl-piperidin-3-yl]-2-methoxy-6-methylsulfanyl-4-trifluoromethyl-benzamide]"
18,68.2,"COc1cc(C(F)(F)F)cc(SC)c1C(=O)NC1(c2cccc(C)c2)CCCN(C)C1 (racemic) [Example 96, rac-2-Methoxy-6-methylsulfanyl-N-(1-methyl-3-m-tolyl-piperidin-3-yl)-4-trifluoromethyl-benzamide]"
19,185,"COc1cc(C(F)(F)F)cc(SC)c1C(=O)NC1(c2ccc(F)c(C)c2)CCCN(C)C1 (racemic) [Example 97, rac-N-[3-(4-Fluoro-3-methyl-phenyl)-1-methyl-piperidin-3-yl]-2-methoxy-6-methylsulfanyl-4-trifluoromethyl-benzamide]"
20,62.2,"COc1cc(C(F)(F)F)cc(SC)c1C(=O)NC1(c2cc(F)cc(F)c2)CCCN(C)C1 (racemic) [Example 98, rac-N-[3-(3,5-Difluoro-phenyl)-1-methyl-piperidin-3-yl]-2-methoxy-6-methylsulfanyl-4-trifluoromethyl-benzamide]"
21,36.6,"COc1cc(C(F)(F)F)cc(SC)c1C(=O)NC1(c2ccccc2)CN(C)CC(C)(C)C1 (racemic) [Example 99, rac-2-Methoxy-6-methylsulfanyl-4-trifluoromethyl-N-(1,5,5-trimethyl-3-phenyl-piperidin-3-yl)-benzamide hydrochloride]"
22,77.3,"CCc1c(C(=O)NC2(c3ccccc3)CCCN(C)C2)ccc(C(F)(F)F)c1C (racemic) [Example 103, rac-2-Ethyl-3-methyl-N-(1-methyl-3-phenyl-piperidin-3-yl)-4-trifluoromethyl-benzamide formic acid]"
23,173,"COc1cc(C(F)(F)F)cc(SC)c1C(=O)NC1(c2ccccc2)CCCN(C(C)(C)C)C1 (racemic) [Example 104, rac-N-(1-tert-Butyl-3-phenyl-piperidin-3-yl)-2-methoxy-6-methylsulfanyl-4-trifluoromethyl-benzamide]"
24,29.3,"COc1cc(C(F)(F)F)cc(SC)c1C(=O)NC1(c2ccccc2)CCC2(CC2)N(C)C1 (racemic) [Example 105, rac-2-Methoxy-N-(4-methyl-6-phenyl-4-aza-spiro[2.5]oct-6-yl)-6-methylsulfanyl-4-trifluoromethyl-benzamide]"
25,31.2,"COc1cc(C(F)(F)F)cc(SC)c1C(=O)N[C@@]1(c2ccccc2)C[C@H](O)CN(C)C1 (racemic) [Example 107, N-((3R,5S) or (3S,5R)-5-Hydroxy-1-methyl-3-phenyl-piperidin-3-yl)-2-methoxy-6-methylsulfanyl-4-trifluoromethyl-benzamide hydrochloride]"
26,16.5,"COc1cc(C(F)(F)F)cc(SC)c1C(=O)N[C@]1(c2ccccc2)C[C@@H](C)CN(C)C1 (racemic) [Example 121, N-((3S,5R) or (3R,5S)-1,5-Dimethyl-3-phenyl-piperidin-3-yl)-2-methoxy-6-methylsulfanyl-4-trifluoromethyl-benzamide]"
